Read-outs that look alike come from different tables or passages of the source. Where a SMILES comes first, the peptide text is derived from it. [ ]: non-standard residue; d: D form. βAla = NCCC(=O)O
Experiments:
Assay type in all cases: in vitro ADME, human
[1] = Soluble peptide degradation, Media condition (cell-conditioned media, LC-MS); conditions: 24 h, LC-MS, ratio to βFβA6
Method in brief: (§1)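 Pooled peptide library added to medium conditioned by hUVECs or hMSCs with cells removed. Fraction remaining after 24 h measured by LC-MS (positive-ion ESI). Value is peptide peak area relative to 50 µM non-degradable βFβA6 internal standard.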

[2] = Soluble peptide degradation, Cells condition (LC-MS); conditions: human, 24 h, LC-MS, ratio to βFβA6
Method in brief: (§2)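 Pooled synthetic TAILS-derived peptides added to hUVEC or hMSC cultures (Cells) or cell-free conditioned media (Media); MMP-14 inhibitor NSC 405 020 at 10 µM final. Samples taken at 0 and 24 h, acidified, analysed by LC-MS; peak areas normalised to 50 µM βFβA6 internal standard, 24 h/0 h gives fraction remaining.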

hUVECs = test: as above; conditions: Figure 3B heatmap; split-and-pool libraries KLVADX1X2ASAE in media on hUVECs; 24 h; LC-MS, ratio to βFβA6; N = 2
Method in brief: as §2

MMP-14 = test: as above; conditions: human, with NSC 405 020 (MMP-14 inhibitor), Figure 3C, 50 µM peptide, 24 h, LC-MS, N = 6
Method in brief: as §2

hMSCs = test: as above; conditions: Figure 3C; individually synthesized soluble peptide, 50 µM, media on hMSCs; 24 h; LC-MS, ratio to βFβA6; N = 6
Method in brief: as §2

[3] = Soluble peptide degradation, Media condition (cell-conditioned media, LC-MS); conditions: 24 h, LC-MS, ratio to βFβA6; remark: listed apart in the source
Method in brief: as §1

Fraction of peptide remaining after 24 hours: hMSC Media ([1]; Figure 3C, individually synthesized soluble peptide, 50 µM, hMSC-conditioned media without cells, N = 6): 0.91
remaining at 24 h ([1]; human, hMSC-conditioned media without cells (Media condition), Figure 3B heatmap, split-and-pool libraries KLVADX1X2ASAE in hMSC-conditioned media without cells, N = 2, read-out: Fraction of peptide remaining after 24 hours: hMSC Media): 78%
remaining at 24 h ([2]; hMSCs in culture with fresh media (Cells condition), Figure 3B heatmap, split-and-pool libraries KLVADX1X2ASAE (19 or 38 peptides per library) in media on hMSCs, N = 2, read-out: Fraction of peptide remaining after 24 hours: hMSC Cells): 53%
remaining at 24 h, 50 µM ([2]; hUVECs in culture with fresh media (Cells condition), Figure 3C, individually synthesized soluble peptide, 50 µM, media on hUVECs, N = 6, read-out: Fraction of peptide remaining after 24 hours: hUVEC Cells): 72%
Fraction of peptide remaining after 24 hours: hUVEC Cells (hUVECs): 0.86
remaining at 24 h, 50 µM (MMP-14; media on hMSCs with MMP-14 inhibitor NSC 405 020 10 µM, read-out: Fraction of peptide remaining after 24 hours: hMSC +Inhibitor): 76%
remaining at 24 h, 50 µM (MMP-14; media on hUVECs with MMP-14 inhibitor NSC 405 020 10 µM, read-out: Fraction of peptide remaining after 24 hours: hUVEC +Inhibitor): 98%
Fraction of peptide remaining after 24 hours: hMSC Cells (hMSCs): 0.4
Fraction of peptide remaining after 24 hours: hUVEC Media ([3]; Figure 3B heatmap, split-and-pool libraries KLVADX1X2ASAE in hUVEC-conditioned media without cells, N = 2): 0.96
Fraction of peptide remaining after 24 hours: hUVEC Media ([3]; Figure 3C, individually synthesized soluble peptide, 50 µM, hUVEC-conditioned media without cells, N = 6): 0.92
Compound: CC(=O)NCCC(=O)N[C@@H](CCCCN)C(=O)N[C@@H](CC(C)C)C(=O)N[C@H](C(=O)N[C@@H](C)C(=O)N[C@@H](CC(=O)O)C(=O)N[C@@H](Cc1ccc(O)cc1)C(=O)N[C@@H](Cc1c[nH]c2ccccc12)C(=O)N[C@@H](C)C(=O)N[C@@H](CO)C(=O)N[C@@H](C)C(=O)N[C@@H](CCC(=O)O)C(=O)NCCC(N)=O)C(C)C [KLVAD-YW] (Ac-[βAla]KLVADYWASAE[βAla]-NH2)

— paper PMC12683216, “Using High‐Throughput Screening to Identify Crosslinking Peptides That Control Cell‐Mediated Matrix Degradation” (Advanced Healthcare Materials, 2025)
